Measurements from ChEMBL document CHEMBL2046425, “Neamphamide B, new cyclic depsipeptide, as an anti-dormant mycobacterial substance from a Japanese marine sponge of Neamphius sp” (2012).
Converted amounts (≈) assume the structure as drawn.

Assays:
[1] = system: Mycolicibacterium smegmatis; test: Antimicrobial activity against Mycobacterium smegmatis under dormancy-inducing hypoxic condition for 96 hrs by MTT assay; format: functional
[2] = system: Mycolicibacterium smegmatis; test: Antimicrobial activity against Mycobacterium smegmatis under aerobic condition for 36 hrs by MTT assay; format: functional

COC(c1ccc(O)cc1)C1NC(=O)[C@H](CCC(N)=O)N(C)C(=O)[C@H](CC(C)C)NC(=O)[C@@H](CCCNC(=N)N)NC(=O)[C@@H]([C@@H](C)O)NC(=O)[C@H](NC(=O)C(NC(=O)[C@H](O)[C@H](O)[C@H](CCCNC(=N)N)NC(=O)[C@@H](CC(N)=O)NC(=O)C(C)C(O)C(C)CC(C)C)C(C)C(C)C(N)=O)[C@@H](C)OC(=O)[C@@H]2CCCCN2C1=O (some centres not stated) [NEAMPHAMIDE B]
MIC [1]: 1.56 µg/mL (≈ 0.991 µM) | MIC [2]: 1.56 µg/mL (≈ 0.991 µM)
